{
  "source": "patent US20230046998A1",
  "about": "“COMPOSITION FOR PREVENTING OR TREATING KELOID” (CHUNGNAM NATIONAL UNIVERSITY HOSPITAL, priority 2021, published 2023)",
  "key": {"[1]": {"test_system": "normal skin tissue-derived fibroblasts", "experiment": "Cell viability of normal skin tissue-derived fibroblasts after TUDCA treatment (WST-1)", "format": "cell-based, human", "details": "12 hours after exposure to TUDCA; smaller effect than in keloid fibroblasts (FIG. 5C)", "protocol": "(§1) Human keloid-derived fibroblasts and normal skin-derived fibroblasts were cultured in Dulbecco's modified Eagle's medium (DMEM; Invitrogen), 10% fetal bovine serum (FBS; Hyclone, Logan, Utah, USA), 100 U/mL penicillin and 100 µg/mL streptomycin (Invitrogen) media at 5% CO2. Keloid-derived fibroblasts are placed 1×10^4/well on 96-well plates, after treatment with tauroursodeoxycholic acid (TUDCA; Merck Millipore, Billerica, Mass., USA) for 24 hours, cell proliferation was measured with an enzyme-linked immunosorbent assay reader using a 450 nm WST-1 (Roche Diagnostics Corporation, Indianapolis, Ind., USA) assay.\n(§2) After treatment with TUDCA, the viability of human keloid tissue-derived fibroblasts and normal skin tissue-derived fibroblasts was evaluated."}, "[2]": {"test_system": "COL1A2 and ER stress-related gene expression in human keloid tissue-derived fibroblasts", "experiment": "COL1A2 and ER stress-related gene expression in TUDCA-treated keloid fibroblasts", "format": "cell-based", "details": "TUDCA-treated human keloid tissue-derived fibroblasts (FIG. 5B)"}, "[3]": {"test_system": "rabbit ear scar (keloid animal model)", "experiment": "Rabbit ear scar model, intralesional injection", "format": "in vivo, New Zealand white rabbit", "protocol": "Animal studies were performed with the approval of the Preclinical Research Center (CNUH-019-A0079) of Chungnam National University Hospital. A 12-month-old female New Zealand white rabbit weighing about 4 kg was purchased from Damul Science (Daejeon, Korea), and all rabbits were kept individually in cages and received humane care according to institutional guidelines. After anesthetizing rabbits with a mixture of ketamine (60 mg/kg) and xylazine (5 mg/kg), the side ear hairs were shaved, disinfected with povidone-iodine, and then anesthetized. Next, after using a 10 mm biopsy punch to make 2 circular wounds with a diameter of 10 mm on the ventral surface of each ear, and covering the wound with an adhesive polyurethane dressing (Tegaderm; 3M, Minneapolis, Minn., USA), and once a day, the wound areas were disinfected with physiological saline and observed, and the adhesive polyurethane dressing was replaced. After wound formation, a simple dressing was maintained for 20 days to form a thick scar tissue, and on days 20 and 25 after wounding, saline, steroid (10 mg/mL) or TUDCA (10 mg/mL) was administered to the dermal region of the rabbit ear scar using a 30-gauge syringe (FIG. 1).\n6. Scar Elevation Index (SEI) Calculation (Methods for Evaluating Keloid Tissue) SEI gives the ratio of total hypertrophic scar area to normal tissue present beneath the scar. In the present invention, the region where the cartilage layer is left as it is and the skin layer is excised is the B region. Area A contains an excessive amount of soft tissue compared to the surrounding normal dermal layer. An SEI greater than 1 indicates the formation of hypertrophic scars, keloids (FIG. 2).\nNext, the efficacy of TUDCA for keloid improvement in a rabbit ear scar model was investigated.\nOn days 20 and 25 after wounding, normal saline (NS), steroids (10 mg/mL) or TUDCA (10 mg/mL) were injected into the scar dermis."}, "[4]": {"test_system": "human keloid tissue-derived fibroblasts", "experiment": "Cell viability of human keloid tissue-derived fibroblasts after TUDCA treatment (WST-1)", "format": "cell-based", "details": "6 hours, 12 hours, and 24 hours after TUDCA treatment (FIG. 5A)", "protocol": "as §1, §2"}, "[5]": {"test_system": "keloid pathway markers p-SMAD2/3 and TGFβ1", "experiment": "Western blotting of keloid pathway markers in fibroblasts", "format": "cell-based, human", "details": "significant difference in keloid-derived versus normal skin-derived fibroblasts (FIG. 5D)", "protocol": "Tissues were homogenized using a TissueLyzer II (Qiagen, Hilden, Germany). Cells and tissues were lysed in RIPA buffer (30 mM Tris [pH 7.5], 150 mM sodium chloride, 1 mM sodium phenylmethylsulfonyl fluoride, 1 mM sodium orthovanadate, 1% Nonidet P-40, 10% glycerol, phosphatase and protease inhibitors). Western blot analysis was performed with 40 μg of protein using a commercially available antibody. Anti-CHOP, anti-pERK, anti-ERK, anti-IRE1α, anti-pIRE1α, anti-pSMAD2/3 and anti-β-actin antibodies were purchased from Cell Signaling Technology (Beverly, Mass., USA). Anti-COL1A1, anti-ATF4, anti-TGFβ1, anti-IL-1 antibodies and secondary antibodies were purchased from Santa Cruz Biotechnology (Santa Cruz, Calif., USA) was used. Immune response bands were visualized by enhanced chemiluminescence (ECL) (Bio-Rad, Hercules, Calif., USA), and images were scanned using an Odyssey imaging system and quantified using Image Studio Digits (LI-COR Biosciences, Lincoln, Nebr., USA).\nHuman keloid-derived fibroblasts and normal skin-derived fibroblasts were cultured in Dulbecco's modified Eagle's medium (DMEM; Invitrogen), 10% fetal bovine serum (FBS; Hyclone, Logan, Utah, USA), 100 U/mL penicillin and 100 µg/mL streptomycin (Invitrogen) media at 5% CO2. […]\nas §2"}},
  "data": [
    {"smiles": "C[C@H](CCC(=O)NCCS(=O)(=O)O)[C@H]1CC[C@H]2[C@@H]3[C@@H](O)C[C@@H]4C[C@H](O)CC[C@]4(C)[C@H]3CC[C@]12C", "note": "[TUDCA, tauroursodeoxycholic acid]", "values": [
      {"measurement": "viability of normal skin tissue-derived fibroblasts", "setting": "[1]", "result": "decreased"},
      {"measurement": "COL1A2 gene expression level", "setting": "[2]", "result": "significantly reduced"},
      {"measurement": "ER stress-related gene expression levels", "setting": "[2]", "result": "significantly reduced"},
      {"measurement": "gross appearance / healing of rabbit ear scars", "setting": "[3]; 10 mg/mL injected into scar dermis on days 20 and 25 after wounding, compared with saline group (FIG. 7)", "result": "healed better"},
      {"measurement": "Scar Elevation Index (SEI)", "setting": "[3]; 10 mg/mL intralesional, days 20 and 25, control group 2.778±0.346, p=0.0263 steroid, p=0.0098 TUDCA vs control", "result": "1.586±0.074"},
      {"measurement": "irregular fiber deposition in scar tissue (H&E)", "setting": "[3]; 10 mg/mL intralesional, days 20 and 25, tissue collected day 34, compared to saline group (FIG. 8)", "result": "significantly reduced"},
      {"measurement": "decrease in SEI compared with the steroid group", "setting": "[3]; rabbit ear scar model, p=0.0215", "result": "significantly greater decrease"},
      {"measurement": "cell viability", "setting": "[4]", "result": "significantly decreased"},
      {"measurement": "level of TGFβ1", "setting": "[5]", "result": "reduced"},
      {"measurement": "level of p-SMAD2/3", "setting": "[5]", "result": "reduced"}
    ]}
  ]
}
